#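 A five-concentration, 48-hour dose response in 96-well plates underlies each endpoint, interpolated linearly between surrounding concentrations. GI50: concentration for 50% inhibition of growth. TGI is the concentration that stops growth completely.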
# Tests used:
# Test in all cases: NCI-60 cell line screen, 48 h
# [1] = test system: SK-MEL-2 melanoma
# [2] = test system: MCF7 breast
# [3] = test system: 786-0 renal
# [4] = test system: RPMI-8226 leukemia
# [5] = test system: ACHN renal
# [6] = test system: OVCAR-4 ovarian
# [7] = test system: MDA-MB-435
# [8] = test system: SK-MEL-28 melanoma
# [9] = test system: MDA-MB-231 breast
# [10] = test system: T-47D breast
SMILES,GI50 [1] [µM],TGI [1] [µM],GI50 [2] [µM],TGI [2] [µM],GI50 [3] [µM],TGI [3] [µM],GI50 [4] [µM],TGI [4] [µM],GI50 [5] [µM],TGI [5] [µM],GI50 [6] [µM],TGI [6] [µM],GI50 [7] [µM],TGI [7] [µM],GI50 [8] [µM],TGI [8] [µM],GI50 [9] [µM],TGI [9] [µM],GI50 [10] [µM],TGI [10] [µM]
Nc1c(C(=O)Nc2cccc3ccccc23)sc2nc3c(cc12)CCCCC3,> 50,> 50,0.168,> 50,0.443,> 50,1.16,> 50,2.59,> 50,1.79,> 50,0.116,0.32,4.32,> 50,1.27,> 50,5.94,> 50
O=C1NC(=O)[C@H]2C3C=CC([C@@H]12)[C@@H]1C(=O)NC(=O)[C@H]31,–,> 100,–,> 100,–,> 100,–,> 100,–,> 100,–,–,–,> 100,–,> 100,–,> 100,–,> 100
Cc1ccc(-c2nc3nc(-c4ccc(Cl)cc4)nc(N4CCCNCC4)c3o2)cc1,2.04,3.94,1.7,3.39,1.86,3.54,2.11,4.74,1.71,3.09,1.84,3.39,1.81,3.25,1.73,3.13,1.83,3.37,1.94,4.14
Nc1nc(F)nc2c1ncn2C1OC(COP(=O)(O)O)C(O)C1O (stereo not given),–,151,–,717,–,384,–,855,–,247,–,987,–,218,–,755,–,772,–,489
CCOC(=O)c1ccc(C(O)CC(=O)OC(C)(C)C)[nH]1 (stereo not given),21.3,41.3,10.4,30,23.9,83.3,> 100,> 100,41.5,> 100,38.1,> 100,24.1,62.2,35.7,> 100,13,> 100,38.4,> 100
COc1ccc2c(c1)/C(=C/c1c(-c3ccc(C)cc3)nc3sc(C)cn13)C(=O)N2,14.6,47.7,12.1,> 100,6.68,50.2,–,–,–,–,14.2,> 100,19,> 100,23.4,> 100,13.3,> 100,5.5,> 100
COc1ccc2c(c1)C(=O)c1c-2c(N2CCN(C(=O)CN(C)C)CC2)nc2ccccc12,18.4,39,12.3,27.6,14.4,33.7,10.7,28.6,16,33.2,13,29.5,30.2,98,1.29,3.16,13.3,28.9,16.2,34.1
O=C1CN2CCC1C/C2=C\c1ccnc2c(Cl)cccc12 (stereo not given),> 100,> 100,4.16,> 100,> 100,> 100,29.5,> 100,85.3,> 100,42.5,> 100,75.6,> 100,> 100,> 100,88.8,> 100,18.8,> 100
CCOC(=O)CCc1c(C)c2ccc(O)cc2oc1=O,–,> 100,–,> 100,–,> 100,–,> 100,–,> 100,–,> 100,–,> 100,–,> 100,–,> 100,–,> 100
Cc1cc(Nc2nc(N3CCOCC3)nc3ccccc23)n[nH]1,5.2,> 100,9.7,> 100,3.91,26.1,22.5,> 100,2.03,18.5,7.26,> 100,4.03,> 100,20.4,> 100,15,> 100,9.63,> 100
COc1cc(C(=O)O)ccc1NC(=O)[C@@H]1N[C@@H](CC(C)(C)C)[C@](C#N)(c2ccc(Cl)cc2F)[C@H]1c1cccc(Cl)c1F,2.96,10,0.0328,4.12,3.45,18.4,2.51,> 22.9,0.0496,6.82,4.56,29.6,2.82,13.1,2.56,7.59,6.58,> 100,5.23,43.7
CNC(=O)c1ccc(Nc2nc(OC3CCCC3)c3c(-c4ccc5nc(C)oc5c4)c[nH]c3n2)c(OC)c1,> 51.3,> 100,0.252,> 100,> 43.4,> 100,0.481,> 20.4,0.438,> 100,5.59,> 100,> 100,> 100,41.4,> 100,14,> 100,0.907,> 100
O=C1OC2(c3ccccc31)c1cc(I)c(O)c(I)c1Oc1c2cc(I)c(O)c1I,–,> 100,–,> 100,–,> 100,–,> 100,–,> 100,–,> 100,–,> 100,–,> 100,–,> 100,–,> 100
